Where two headings read alike, the source gives them in different places.
Legend:
[1] = system: WT HIV-1 strain (IIIB); type: cell-based; settings: ratio of CC50/EC50, MT-4 cells
[2] = system: K103 N + Y181C double mutant HIV-1 strain (RES056); experiment: Anti-HIV-1 activity against double mutant RES056 in MT-4 cells, MTT method; type: cell-based; settings: for SI RES056: ratio of CC50/EC50, MT-4 cells, values given with symbol X1; for EC50 RES056: MT-4 cells, MTT method
[3] = system: wild-type HIV-1 (NL4-3); experiment: Inhibition of wild-type HIV-1; type: cell-based; settings: ratio of CC50/EC50, TZM-bl cells
[4] = system: HIV-1 Y181C mutant strain; type: cell-based
[5] = system: HIV-1 E138K mutant strain; experiment: microbe, parasite or virus in culture; type: cell-based
[6] = system: HIV-1 L100I mutant strain; experiment: microbe, parasite or virus in culture; type: cell-based
[7] = Cytotoxicity in mock-infected MT-4 cells, MTT method; type: cell-based; settings: human
[8] = system: HIV-1 K103 N mutant strain; type: cell-based; settings: ratio of CC50/EC50, MT-4 cells
[9] = system: HIV-1 Y188L mutant strain; experiment: microbe, parasite or virus in culture; type: cell-based; settings: for EC50: Human immunodeficiency virus 1, MT4, read-out: EC50 Y188L
[10] = system: HIV-1 F227L + V106A mutant strain; experiment: microbe, parasite or virus in culture; type: cell-based
[11] = system: WT HIV-1 strain (IIIB); settings: cited from earlier work
[12] = system: K103 N + Y181C double mutant HIV-1 strain (RES056); settings: cited from earlier work
[13] = system: MT-4 cells; settings: cited from earlier work
[14] = molecular target: HIV-1 RT (Human immunodeficiency virus type 1 group M subtype B, UniProt P03366); settings: read-out: IC50 against HIV-1 RT; cited from earlier work

With `Cc1cc(C)c(Oc2cc(Nc3ccc(C#N)cc3)ncc2C(=O)NCc2cn(Cc3ccccc3C)nn2)c(C)c1` [3a1, N-((1-(2-methylbenzyl)-1H-1,2,3-triazol-4-yl)methyl)-6-((4-cyanophenyl)amino)-4(mesityloxy)nicotinamide] the “SI IIIB” value [1] was ≥2132.
In the case of `Cc1cc(C)c(Oc2cc(Nc3ccc(C#N)cc3)ncc2C(=O)NCc2cn(Cc3ccccc3F)nn2)c(C)c1` [3a2, N-((1-(2-fluorobenzyl)-1H-1,2,3-triazol-4-yl)methyl)-6-((4-cyanophenyl)amino)-4-(mesityloxy)nicotinamide], the “SI IIIB” value [1] is reported as >2348 and the “SI RES056” value [2] is reported as “X1”.
In the case of `Cc1cc(C)c(Oc2cc(Nc3ccc(C#N)cc3)ncc2C(=O)NCc2cn(Cc3ccccc3Cl)nn2)c(C)c1` [3a3, N-((1-(2-chlorobenzyl)-1H-1,2,3-triazol-4-yl)methyl)-6-((4-cyanophenyl)amino)-4-(mesityloxy)nicotinamide], the “SI IIIB” value [1] is reported as ≥1807.
For `Cc1cc(C)c(Oc2cc(Nc3ccc(C#N)cc3)ncc2C(=O)NCc2cn(Cc3ccccc3C#N)nn2)c(C)c1` [3a4, N-((1-(2-cyanobenzyl)-1H-1,2,3-triazol-4-yl)methyl)-6-((4-cyanophenyl)amino)-4-(mesityloxy)nicotinamide], the “SI IIIB” value [1] was >5589 and the “SI RES056” value [2] was “X1”.
For `Cc1cc(C)c(Oc2cc(Nc3ccc(C#N)cc3)ncc2C(=O)NCc2cn(Cc3ccccc3[N+](=O)[O-])nn2)c(C)c1` [3a5, N-((1-(2-nitrobenzyl)-1H-1,2,3-triazol-4-yl)methyl)-6-((4-cyanophenyl)amino)-4-(mesityloxy)nicotinamide], the “SI IIIB” value [1] was >3724 and the “SI RES056” value [2] was “X1”.
In the case of `Cc1cc(C)c(Oc2cc(Nc3ccc(C#N)cc3)ncc2C(=O)NCc2cn(Cc3cccc(F)c3)nn2)c(C)c1` [3a7, N-((1-(3-fluorobenzyl)-1H-1,2,3-triazol-4-yl)methyl)-6-((4-cyanophenyl)amino)-4-(mesityloxy)nicotinamide], the “SI IIIB” value [1] is reported as ≥2608.
For `Cc1cc(C)c(Oc2cc(Nc3ccc(C#N)cc3)ncc2C(=O)NCc2cn(Cc3cccc(C#N)c3)nn2)c(C)c1` [3a9, N-((1-(3-cyanobenzyl)-1H-1,2,3-triazol-4-yl)methyl)-6-((4-cyanophenyl)amino)-4-(mesityloxy)nicotinamide], the “SI IIIB” value [1] was ≥5213.
In the case of `Cc1cc(C)c(Oc2cc(Nc3ccc(C#N)cc3)ncc2C(=O)NCc2cn(Cc3cccc([N+](=O)[O-])c3)nn2)c(C)c1` [3a10, N-((1-(3-nitrobenzyl)-1H-1,2,3-triazol-4-yl)methyl)-6-((4-cyanophenyl)amino)-4-(mesityloxy)nicotinamide], the “SI IIIB” value [1] is reported as ≥4220.
With `Cc1cc(C)c(Oc2cc(Nc3ccc(C#N)cc3)ncc2C(=O)NCc2cn(Cc3ccc(F)cc3)nn2)c(C)c1` [3a12, N-((1-(4-fluorobenzyl)-1H-1,2,3-triazol-4-yl)methyl)-6-((4-cyanophenyl)amino)-4-(mesityloxy)nicotinamide] the “SI IIIB” value [1] was ≥2056.
In the case of `Cc1cc(C)c(Oc2cc(Nc3ccc(C#N)cc3)ncc2C(=O)NCc2cn(Cc3ccc(Cl)cc3)nn2)c(C)c1` [3a13, N-((1-(4-chlorobenzyl)-1H-1,2,3-triazol-4-yl)methyl)-6-((4-cyanophenyl)amino)-4-(mesityloxy)nicotinamide], the “SI IIIB” value [1] is reported as ≥620.
With `Cc1cc(C)c(Oc2cc(Nc3ccc(C#N)cc3)ncc2C(=O)NCc2cn(Cc3ccc([N+](=O)[O-])cc3)nn2)c(C)c1` [3a14, N-((1-(4-nitrobenzyl)-1H-1,2,3-triazol-4-yl)methyl)-6-((4-cyanophenyl)amino)-4-(mesityloxy)nicotinamide] the “SI IIIB” value [1] was ≥3498.
With `Cc1cc(C)c(Oc2cc(Nc3ccc(C#N)cc3)ncc2C(=O)NCc2cn(CCCO)nn2)c(C)c1` [3b1, 6-((4-cyanophenyl)amino)-N-((1-(3-hydroxypropyl)-1H-1,2,3-triazol-4-yl)methyl)-4-(mesityloxy)nicotinamide] the “EC50 RES056” value [2] was “low micromolar concentration”.
With `Cc1cc(C)c(Oc2cc(Nc3ccc(C#N)cc3)ncc2C(=O)NCc2cn(CCC#N)nn2)c(C)c1` [3b2, N-((1-(2-cyanoethyl)-1H-1,2,3-triazol-4-yl)methyl)-6-((4-cyanophenyl)amino)-4-(mesityloxy)nicotinamide] the “SI IIIB” value [1] was 2044 and the “EC50 RES056” value [2] was “low micromolar concentration”.
In the case of `CC(=O)Cn1cc(CNC(=O)c2cnc(Nc3ccc(C#N)cc3)cc2Oc2c(C)cc(C)cc2C)nn1` [3b3, 6-((4-cyanophenyl)amino)-4-(mesityloxy)-N-((1-(2-oxopropyl)-1H-1,2,3-triazol-4-yl)methyl)nicotinamide], the “EC50 RES056” value [2] is reported as “low micromolar concentration”.
For `Cc1cc(C)c(Oc2cc(Nc3ccc(C#N)cc3)ncc2C(=O)NCc2cn(CC(N)=O)nn2)c(C)c1` [3b7, N-((1-(2-amino-2-oxoethyl)-1H-1,2,3-triazol-4-yl)methyl)-6-((4-cyanophenyl)amino)-4-(mesityloxy)nicotinamide], the “EC50 RES056” value [2] was “low micromolar concentration”.
In the case of `Cc1cc(C)c(Oc2cc(Nc3ccc(C#N)cc3)ncc2C(=O)NCc2cn(CC(=O)N3CCCC3)nn2)c(C)c1` [3b8, 6-((4-cyanophenyl)amino)-4-(mesityloxy)-N-((1-(2-oxo-2-(pyrrolidin-1-yl)ethyl)-1H-1,2,3-triazol-4-yl)methyl)nicotinamide], the “EC50 RES056” value [2] is reported as “low micromolar concentration”.
For `Cc1cc(C)c(Oc2cc(Nc3ccc(C#N)cc3)ncc2C(=O)NCc2cn(CC(=O)N3CCOCC3)nn2)c(C)c1` [3b9, 6-((4-cyanophenyl)amino)-4-(mesityloxy)-N-((1-(2-morpholino-2-oxoethyl)-1H-1,2,3-triazol-4-yl)methyl)nicotinamide], the “SI IIIB” value [1] was 9279, the “EC50 RES056” value [2] was “low micromolar concentration” and the SI [3] was >10.8.
With `Cc1cn([C@H]2C[C@H](N=[N+]=[N-])[C@@H](CO)O2)c(=O)[nH]c1=O` [AZT, Zidovudine] the “Resistance Folds Y181C” value ([4]; ratio of EC50 against mutant strain/EC50 against WT strain) was 1.0 and the EC50 ([5]; Human immunodeficiency virus 1, MT4, read-out: EC50 E138K) was 0.013 ± 0.004 µM.
In the case of `CC(C)Nc1cccnc1N1CCN(C(=O)c2cc3cc(NS(C)(=O)=O)ccc3[nH]2)CC1` [DLV, Delavirdine], the “SI L100I” value ([6]; ratio of CC50/EC50, MT-4 cells) is reported as 14, the “SI Y181C” value ([4]; ratio of CC50/EC50, MT-4 cells) is reported as 15 and the CC50 at 5 days [7] is reported as 36.8 µM. The “SI K103 N” value [8] was 12, the “SI Y188L” value ([9]; ratio of CC50/EC50, MT-4 cells) was 44 and the “SI F227L + V106A” value ([10]; ratio of CC50/EC50, MT-4 cells) was 16. For the same molecule, the “SI E138K” value ([5]; ratio of CC50/EC50, MT-4 cells) was 715.
`O=C1Nc2ccc(Cl)cc2[C@@](C#CC2CC2)(C(F)(F)F)O1` [EFV, Efavirenz] showed an EC50 [9] of 0.34 ± 0.01 µM and an EC50 ([10]; Human immunodeficiency virus 1, MT4, read-out: EC50 F227L + V106A) of 0.21 ± 0.008 µM.
Molecule `Cc1cc(C#N)cc(C)c1Oc1nc(Nc2ccc(C#N)cc2)nc(N)c1Br` [ETR, Etravirine] has a CC50 at 5 days [7] of 2.46 µM.
For `C#CCNC(=O)c1cnc(Nc2ccc(C#N)cc2)cc1Oc1c(C)cc(C)cc1C` [L-6b5, 6-((4-cyanophenyl)amino)-4-(mesityloxy)-N-(prop-2-yn-1-yl)nicotinamide], the “SI IIIB” value ([11]; ratio of CC50/EC50) is given as 2471, the EC50 ([11]; read-out: EC50 IIIB, MT-4 cells) is given as 0.029 ± 0.005 µM and the “SI RES056” value ([12]; ratio of CC50/EC50) is given as 12. The EC50 ([12]; read-out: EC50 RES056, MT-4 cells) was 6.1 ± 0.54 µM and the CC50 [13] was 73 ± 26.9 µM.
Molecule `Cc1ccnc2c1NC(=O)c1cccnc1N2C1CC1` [NVP, Nevirapine] has an EC50 ([6]; Human immunodeficiency virus 1, MT4, read-out: EC50 L100I) of 0.83 ± 0.32 µM and an EC50 [9] of 9.61 ± 1.86 µM.
For `CCOc1ccnc(CCNC(=S)Nc2ccc(Cl)cn2)c1F` [PETT-2], the IC50 [14] is given as 0.005 µM.

Source: paper PMC6001364 (European journal of medicinal chemistry, 2018)
